Reference: ChEMBL document CHEMBL4130368, “Thienopyrimidine derivatives exert their anticancer efficacy via apoptosis induction, oxidative stress and mitotic catastrophe” (Eur J Med Chem, 2017)
Active and inactive are the calls of the source. The rule behind the calls is not given here.

Experiments:
[1] = Antiproliferative activity against human GBM10 cells after 72 hrs by MTT assay; format: functional, cell-based; conditions: GBM10, 72 h
A2780 [2] = experiment: Antiproliferative activity against human A2780 cells after 72 hrs by MTT assay; format: functional, cell-based; conditions: A2780, 72 h
[3] = Selectivity index, ratio of IC50 for CHO cells to IC50 for human HCT15 cells; format: toxicity; conditions: Chinese hamster (CHO cells), CHO cells versus HCT15 cells, read-out: Ratio IC50
[4] = Selectivity index, ratio of IC50 for CHO cells to IC50 for human LN229 cells; format: toxicity; conditions: Chinese hamster (CHO cells), CHO cells versus LN229 cells, read-out: Ratio IC50
[5] = Selectivity index, ratio of IC50 for CHO cells to IC50 for human A2780 cells; format: toxicity; conditions: Chinese hamster (CHO cells), CHO cells versus A2780 cells, read-out: Ratio IC50
HCT-116 [6] = experiment: Inhibition of colony formation in human HCT116 cells at 1 to 2 uM after 24 hrs by crystal violet dye based assay; format: functional, cell-based
HCT-116 [7] = experiment: Cell cycle arrest in human HCT116 cells assessed as accumulation at subG1 phase at 1 uM measured after overnight incubation by propidium iodide staining-based flow cytometry (reference value: 0.154%); format: functional
HCT-116 [8] = experiment: Cell cycle arrest in human HCT116 cells assessed as accumulation at subG1 phase at 2 uM measured after overnight incubation by propidium iodide staining-based flow cytometry (reference value: 0.154%); format: functional
HCT-116 [9] = experiment: Cell cycle arrest in human HCT116 cells assessed as accumulation at G2 phase at 2 uM measured after overnight incubation by propidium iodide staining-based flow cytometry (reference value: 24%); format: functional
2008 [10] = experiment: Cell cycle arrest in human OV2008 cells assessed as accumulation at G1 phase at 2 uM measured after overnight incubation by propidium iodide staining-based flow cytometry (reference value: 52.6%); format: functional
2008 [11] = experiment: Cell cycle arrest in human OV2008 cells assessed as accumulation at S phase at 2 uM measured after overnight incubation by propidium iodide staining-based flow cytometry (reference value: 10.8%); format: functional
2008 [12] = experiment: Cell cycle arrest in human OV2008 cells assessed as accumulation at G2 phase at 2 uM measured after overnight incubation by propidium iodide staining-based flow cytometry (reference value: 26.9%); format: functional
A2780 [13] = experiment: Cell cycle arrest in human A2780 cells assessed as accumulation at subG1 phase at 1 uM measured after overnight incubation by propidium iodide staining-based flow cytometry (reference value: 8.88%); format: functional
A2780 [14] = experiment: Cell cycle arrest in human A2780 cells assessed as accumulation at G1 phase at 1 uM measured after overnight incubation by propidium iodide staining-based flow cytometry (reference value: 51.1%); format: functional
A2780 [15] = experiment: Cell cycle arrest in human A2780 cells assessed as accumulation at S phase at 1 uM measured after overnight incubation by propidium iodide staining-based flow cytometry (reference value: 15.2%); format: functional
A2780 [16] = experiment: Cell cycle arrest in human A2780 cells assessed as accumulation at G2 phase at 2 uM measured after overnight incubation by propidium iodide staining-based flow cytometry (reference value: 24.9%); format: functional
2008 [17] = experiment: Induction of cellular oxidative stress in human OV2008 cells assessed as increase in ROS levels at 0.5 to 4 uM after 48 hrs by DCFDA dye-based fluorescence microscopic method; format: functional, cell-based
2008 [18] = experiment: Induction of mitotic catastrophe in human OV2008 cells assessed as formation of large with flattened cells at 0.5 to 2 uM measured after overnight incubation by DAPI-staining based microscopy; format: functional, cell-based
HCT-116 [19] = experiment: Induction of mitotic catastrophe in human HCT116 cells assessed as formation of de-condensed multiple micronuclei at 0.5 to 2 uM measured after overnight incubation by DAPI-staining based microscopy; format: functional, cell-based
HCT-116 [20] = experiment: Induction of apoptosis in human HCT116 cells assessed as early apoptotic cells at 1 uM measured after overnight incubation by mitotracker red/alexa fluor-488 Annexin V staining-based flow cytometry (reference value: 8.36%); format: functional
HCT-116 [21] = experiment: Induction of apoptosis in human HCT116 cells assessed as viable cells at 2 uM measured after overnight incubation by mitotracker red/alexa fluor-488 Annexin V staining-based flow cytometry (reference value: 89%); format: functional; conditions: read-out: Activity
HCT-116 [22] = experiment: Induction of apoptosis in human HCT116 cells assessed as late apoptotic cells at 2 uM measured after overnight incubation by mitotracker red/alexa fluor-488 Annexin V staining-based flow cytometry (reference value: 0%); format: functional
2008 [23] = experiment: Induction of apoptosis in human OV2008 cells assessed as viable cells at 1 uM measured after overnight incubation by mitotracker red/alexa fluor-488 Annexin V staining-based flow cytometry (reference value: 80.5%); format: functional; conditions: read-out: Activity
2008 [24] = experiment: Induction of apoptosis in human OV2008 cells assessed as early apoptotic cells at 1 uM measured after overnight incubation by mitotracker red/alexa fluor-488 Annexin V staining-based flow cytometry (reference value: 12.9%); format: functional
2008 [25] = experiment: Induction of apoptosis in human OV2008 cells assessed as late apoptotic cells at 1 uM measured after overnight incubation by mitotracker red/alexa fluor-488 Annexin V staining-based flow cytometry (reference value: 0.255%); format: functional
2008 [26] = experiment: Induction of apoptosis in human OV2008 cells assessed as necrotic cells at 2 uM measured after overnight incubation by mitotracker red/alexa fluor-488 Annexin V staining-based flow cytometry (reference value: 6.31%); format: functional
A2780 [27] = experiment: Induction of apoptosis in human A2780 cells assessed as viable cells at 1 uM measured after overnight incubation by mitotracker red/alexa fluor-488 Annexin V staining-based flow cytometry (reference value: 78.1%); format: functional; conditions: read-out: Activity
A2780 [28] = experiment: Induction of apoptosis in human A2780 cells assessed as early apoptotic cells at 1 uM measured after overnight incubation by mitotracker red/alexa fluor-488 Annexin V staining-based flow cytometry (reference value: 11.9%); format: functional
A2780 [29] = experiment: Induction of apoptosis in human A2780 cells assessed as necrotic cells at 1 uM measured after overnight incubation by mitotracker red/alexa fluor-488 Annexin V staining-based flow cytometry (reference value: 9.94%); format: functional
A2780 [30] = experiment: Induction of apoptosis in human A2780 cells assessed as early apoptotic cells at 2 uM measured after overnight incubation by mitotracker red/alexa fluor-488 Annexin V staining-based flow cytometry (reference value: 11.9%); format: functional
A2780 [31] = experiment: Induction of apoptosis in human A2780 cells assessed as late apoptotic cells at 2 uM measured after overnight incubation by mitotracker red/alexa fluor-488 Annexin V staining-based flow cytometry (reference value: 0.015%); format: functional
A2780 [32] = experiment: Induction of apoptosis in human A2780 cells assessed as necrotic cells at 2 uM measured after overnight incubation by mitotracker red/alexa fluor-488 Annexin V staining-based flow cytometry (reference value: 9.94%); format: functional
2008 [33] = experiment: Induction of morphological changes in human OV2008 cells at 0.1 to 3 uM after 68 hrs by microscopic method; format: functional, cell-based
A2780 [34] = experiment: Induction of apoptosis in human A2780 cells assessed as condensation of nuclei at 0.5 to 2 uM measured after overnight incubation by DAPI-staining based microscopy; format: functional, cell-based
A2780 [35] = experiment: Induction of mitotic catastrophe in human A2780 cells assessed as multinuclear changes at 0.5 to 2 uM measured after overnight incubation by DAPI-staining based microscopy; format: functional, cell-based

Molecule COc1ccc(-c2nc(O)c3c4c(sc3n2)CCCC4)cc1 has an IC50 [1] of 0.8 µM, an IC50 (A2780 [2]) of 1.2 µM and a selectivity ratio [3] of 17 to 28. The selectivity ratio [4] was 17 to 28, the selectivity ratio [5] was 17 to 28 and the inhibition (HCT-116 [6]) was “Dose-dependent effect”. It also gave an Activity (HCT-116 [7]) of 0.087%, an Activity (HCT-116 [8]) of 0.097% and an Activity (HCT-116 [9]) of 54.8%. For the same molecule, the Activity 2008 [10] was 13.6%, the Activity 2008 [11] was 31.8% and the Activity 2008 [12] was 41.1%. For the same molecule, the Activity (A2780 [13]) was 7.99%, the Activity (A2780 [14]) was 20.2% and the Activity (A2780 [15]) was 10.4%. The Activity (A2780 [16]) was 63.5%, the Activity 2008 [17] was “Active” and the Activity 2008 [18] was “Active”. The Activity (HCT-116 [19]) was “Active”, the Activity (HCT-116 [20]) was 11.6% and the viability at 2 µM (HCT-116 [21]) was 71.1%. It also gave an Activity (HCT-116 [22]) of 0%, a viability at 1 µM 2008 [23] of 75.1% and an Activity 2008 [24] of 20.3%. The Activity 2008 [25] was 0.245%, the Activity 2008 [26] was 3.79% and the viability at 1 µM (A2780 [27]) was 73.8%. The Activity (A2780 [28]) was 25.8%, the Activity (A2780 [29]) was 0.421% and the Activity (A2780 [30]) was 51.2%. For the same molecule, the Activity (A2780 [31]) was 0.051%, the Activity (A2780 [32]) was 5.77% and the Activity 2008 [33] was “Active”. For the same molecule, the Activity (A2780 [34]) was “Active” and the Activity (A2780 [35]) was “Active”.
